Test system: Hepatitis C virus
Assay: Antiviral activity against HCV genotype 1b expressing wild type NS3-NS5B infected in HuH7 luc/neo cells assessed as inhibition of RNA replication after 3 days by luciferase reporter gene assay
Assay type: functional, organism-based, Hepacivirus hominis
Settings: Huh-7, 72 h

Compound	EC50 [µM]
C[C@H](NP(=O)(OC[C@H]1O[C@@H](n2ccc(=O)[nH]c2=O)[C@](C)(NC(=O)OC(C)(C)C)[C@@H]1O)Oc1ccccc1)C(=O)OC1CCCCCC1 (stereo partly drawn)	3
C[C@H](NP(=O)(OC[C@H]1O[C@@H](n2ccc(=O)[nH]c2=O)[C@](C)(NC(=O)OC(C)(C)C)[C@@H]1O)Oc1ccccc1)C(=O)OCCC(C)(C)C (stereo partly drawn)	2.3
C[C@H](NP(=O)(OC[C@H]1O[C@@H](n2ccc(=O)[nH]c2=O)[C@](C)(NC(=O)OC(C)(C)C)[C@@H]1O)Oc1ccccc1)C(=O)OC1CCCC1 (stereo partly drawn)	4.7
C[C@H](NP(=O)(OC[C@H]1O[C@@H](n2ccc(=O)[nH]c2=O)[C@](C)(NC(=O)OC(C)(C)C)[C@@H]1O)Oc1ccccc1)C(=O)OC1CCCCCCC1 (stereo partly drawn)	15
C[C@H](NP(=O)(OC[C@H]1O[C@@H](n2ccc(=O)[nH]c2=O)[C@](C)(N)[C@@H]1O)Oc1ccccc1)C(=O)OC1CCCCCCC1 (stereo partly drawn)	0.29
C[C@H](NP(=O)(OC[C@H]1O[C@@H](n2ccc(=O)[nH]c2=O)[C@](C)(N)[C@@H]1O)Oc1ccccc1)C(=O)OC1CCCC1 (stereo partly drawn)	0.47
C[C@H](NP(=O)(OC[C@H]1O[C@@H](n2ccc(=O)[nH]c2=O)[C@](C)(N)[C@@H]1O)Oc1ccccc1)C(=O)OC1CCCCCC1 (stereo partly drawn)	0.19
C[C@H](NP(=O)(OC[C@H]1O[C@@H](n2ccc(=O)[nH]c2=O)[C@](C)(N)[C@@H]1O)Oc1ccccc1)C(=O)OCCC(C)(C)C (stereo partly drawn)	0.49

Reference: ChEMBL document CHEMBL3120052, “HCV polymerase inhibitors” (ACS Med Chem Lett, 2014)
